{
  "source": "patent US10806694B2",
  "about": "“Nanoparticles for photodynamic therapy, X-ray induced photodynamic therapy, radiotherapy, radiodynamic therapy, chemotherapy, immunotherapy, and any combination thereof” (The University of Chicago, priority 2014, dated 2020)",
  "key": {"[1]": {"system": "CT26 cells", "experiment": "In vitro PDT cytotoxicity", "format": "cell-based, murine", "conditions": "with irradiation, LED 90 J/cm^2 (0.1 W/cm^2, 15 min), 640 or 650 nm", "method": "(§1) The tumor cell uptake of NMOFs was evaluated by incubating CT26 cells with DBP-UiO or DBC-UiO at a Hf concentration of 50 μM for 4 h. […] The in vitro PDT efficacy of DBC-UiO against colon cancer cells was investigated and compared with DBP-UiO and their corresponding free ligands. […] DBP-UiO and […]: 640 nm; DBC-UiO and […]: 650 nm). DBC-UiO outperformed DBP-UiO by effectively killing both cancer cell lines at low NMOF and light doses."}, "[2]": {"experiment": "UV-visible absorption, extinction coefficient", "format": "physicochemical", "method": "The UV-visible absorption spectra of H2DBP and DBP-UiO were acquired with a UV-vis spectrophotometer (UV-2401 PC, Shimadzu Corporation, Kyoto, Japan). The H2DBP solution and DBP-UiO NMOF suspension were prepared in 0.67 mM phosphate buffer saline (PBS). The absorption of standard solutions of H2DBP at concentrations of 0.2, 0.4, 0.6, 0.8, 1, 1.5, 4 and 8 mg/L were acquired and the standard curve was plotted by linear fitting of the absorbance at 402 nm. The extinction coefficients of H2DBP at 402 nm and 619 nm are 2.2×10^5 and 1.7×10^3 M^−1cm^−1, respectively.\nUV-visible absorption spectroscopy confirmed the photophysical properties of chlorin-based PSs. H2DBC has a split Soret band at λmax=408 nm and four Q-bands at 504, 534, 591, and 643 nm. […] The lowest energy Q-band of DBC-UiO has thus red-shifted by 13 nm from DBP-UiO, with an ε value of 24600 M^−1·cm^−1. H2DBC has an ε value of 21800 M^−1·cm^−1 for the lowest energy Q-band."}, "[3]": {"system": "HT29 cells", "experiment": "In vitro PDT cytotoxicity", "format": "cell-based, human", "conditions": "with irradiation, LED 90 J/cm^2 (0.1 W/cm^2, 15 min), 640 or 650 nm", "method": "as §1"}, "[4]": {"experiment": "Fluorescence lifetime by Time-Correlated Single Photon Counting; fluorescence intensity", "format": "physicochemical", "method": "The fluorescence spectra of H2DBP ligand and DBP-UiO NMOF were taken on a spectrofluorophotometer (RF-5301PC, Shimadzu Corporation, Kyoto, Japan).\nTime-domain lifetimes were measured on a ChronosBH lifetime fluorimeter (ISS, Inc., Champaign, Ill., United States of America) using Time-Correlated Single Photon Counting (TCSPC) methods. The fluorimeter contained Becker-Hickl SPC-130 detection electronics and an HPM-100-40 Hybrid PMT detector. Tunable picosecond pulsed excitation was provided by a Fianium SC400-2 supercontiuum laser source with integrated pulse picker and AOTF. Emission wavelengths were selected with bandpass filters (Semrock and Chroma). The Instrument Response Function (IRF) was measured to be approximately 120 ps FWHM in a 1% scattering solution of Ludox LS colloidal silica. Lifetimes were fit via a forward convolution method in the Vinci control and analysis software.\nFluorescence spectra of suspensions of Hf-MOF (0.04 mM of L ligand) in water, DMF, and THF were taken with an excitation wavelength of 368.8 nm. […] Fluorescence lifetimes of Hf-MOF, Zr-MOF, and H2L suspensions in water were also examined."}, "[5]": {"experiment": "Singlet oxygen generation with Singlet Oxygen Sensor Green (SOSG) under LED irradiation", "format": "physicochemical", "conditions": "for k (fitting parameter for 1O2 generation curve): 0.1 W/cm^2, 650 nm LED for DBC-UiO and H2DBC, 640 nm for the others", "method": "A light-emitting diode (LED) array with peak emission at 640 nm was used as the light source of singlet oxygen generation. The irradiance of LED is 100 mW/cm^2. Singlet oxygen sensor green (SOSG) reagent (Life Technologies, Carlsbad, Calif., United States of America) was employed for the detection of singlet oxygen. H2DBP and DBP-UiO samples were prepared in 5 μM solutions/suspensions in HBSS buffer (for DBP-UiO samples, the concentration was calculated as ligand equivalents). To 2 mL each of these solutions/suspensions, SOSG stock solution (5 μL at 5 mM) was added (final concentration=12.5 μM) before fluorescence measurement.\nFor a typical measurement, fluorescence intensity was acquired on a spectrofluorophotometer (RF-5301PC, Shimadzu Corporation, Kyoto, Japan) with excitation at 504 nm and emission at 525 nm (slit width 3 nm/5 nm for ex/em). Fluorescence was measured after irradiation by LED for 0 (as background), 10 s, 20 s, 30 s, 1 min, 1.5 min, 2 min, 2.5 min, 3 min, 3.5 min, 4 min, 4.5 min, 5 min, 6 min and 7 min.\nSinglet oxygen generation efficiencies of H2DBP and DBP-UiO were determined using Singlet Oxygen Sensor Green (SOSG, Life Technologies). After exposure to a LED light source (peak emission at 640 nm, energy irradiance of 100 mW/cm^2), the […] reagent SOSG reacted with ^1O2 to generate green fluorescence which was quantified with a fluorimeter. The fluorescence intensity was plotted against irradiation time. […] The ^1O2 generation curve was fitted with the following equation: IF=A(1−e^−kt) (1) Where IF is fluorescence intensity and t represents irradiation time while A and k are fitting parameters (for detailed derivations, see SI). […]\nSinglet Oxygen Sensor Green (SOSG) was employed to determine ^1O2 generation efficiencies of H2DBC and DBC-UiO. SOSG reacted with generated ^1O2 to give green fluorescence (λem=525 nm) that was quantified with a fluorometer. For comparison, ^1O2 generation efficiency of H2DBP, DBP-UiO and protoporphyrin IX (PpIX) were also determined. […]"}},
  "data": [
    {"molecule": "O=C(O)c1ccc(-c2c3nc(cc4ccc([nH]4)c(-c4ccc(C(=O)O)cc4)c4nc(cc5ccc2[nH]5)C=C4)C=C3)cc1", "note": "[H2DBP, 5,15-di(p-benzoato)porphyrin]", "values": [
      {"measurement": "IC50", "setting": "[1]", "result": "20 ± 3.1", "unit": "µM"},
      {"measurement": "extinction coefficient at 402 nm", "setting": "[2]; PBS", "result": 220000, "unit": "M⁻¹ cm⁻¹"},
      {"measurement": "extinction coefficient at 619 nm", "setting": "[2]; PBS", "result": 1700, "unit": "M⁻¹ cm⁻¹"},
      {"measurement": "IC50", "setting": "[3]", "result": "17 ± 4", "unit": "µM"},
      {"measurement": "μ1", "setting": "[4]; aq", "result": 12.4, "unit": "ns"},
      {"measurement": "μ2", "setting": "[4]; aq", "result": 7.86, "unit": "ns"},
      {"measurement": "τ", "setting": "[4]; aq", "result": 10.9, "unit": "ns"},
      {"measurement": "μ1", "setting": "[4]; in DMF", "result": 11.3, "unit": "ns"},
      {"measurement": "k (singlet oxygen generation rate)", "setting": "[5]; 5 μM in HBSS, 640 nm LED 100 mW/cm^2, listed as DBP", "result": 0.0015, "unit": "s⁻¹"},
      {"measurement": "k (fitting parameter for 1O2 generation curve)", "setting": "[5]", "result": 0.06, "unit": "min⁻¹"}
    ]},
    {"molecule": "5, 15-di(p-benzoato)chlorin [H2DBC]", "values": [
      {"measurement": "IC50", "setting": "[1]", "result": "8.5 ± 0.1", "unit": "µM"},
      {"measurement": "ε value of the lowest energy Q-band", "setting": "[2]", "result": 21800, "unit": "M⁻¹ cm⁻¹"},
      {"measurement": "IC50", "setting": "[3]", "result": "7.5 ± 2.3", "unit": "µM"},
      {"measurement": "μ1", "setting": "[4]; in DMF", "result": 8.27, "unit": "ns"},
      {"measurement": "μ1", "setting": "[4]; in HBSS", "result": 5.80, "unit": "ns"},
      {"measurement": "μ2", "setting": "[4]; in HBSS", "result": 8.77, "unit": "ns"},
      {"measurement": "τ", "setting": "[4]; in HBSS", "result": 8.15, "unit": "ns"},
      {"measurement": "k (fitting parameter for 1O2 generation curve)", "setting": "[5]", "result": 0.25, "unit": "min⁻¹"}
    ]}
  ]
}
